The target of assay [1] is Cannabinoid receptor 2 (Mus musculus, UniProt P47936). Description: Inhibition of [3H]CP-55940 binding to cannabinoid receptor 2 of mouse spleen membranes. In kind it is tissue-based.
The target in assay [2] is Cannabinoid receptor 1 (Rattus norvegicus, UniProt P20272). Description: Inhibition of [3H]CP-55940 binding to cannabinoid receptor 1 of rat brain.
In assay [3] the test system is Rattus norvegicus. Description: In vivo cannabinergic activity in rat after 30 min of dose administration (0.03-1.8 mg/kg) using drug discrimination assay. In kind it is functional. As to conditions: 0.5 h.
Assay [4] concerns Rattus norvegicus. Description: In vivo cannabinergic activity in rat after 90 min of dose administration (0.03-1.8 mg/kg) using drug discrimination assay. The format is functional.

Broadly, the Ki is a measure of affinity in units of concentration, obtained from inhibition or displacement. Low readings indicate higher affinity, high ones lower affinity. Usually ED50 stands for the dose at which the effect has come halfway, by size or by number of responders.

Cannabinoid receptor 1, sequence (P20272 whole entry): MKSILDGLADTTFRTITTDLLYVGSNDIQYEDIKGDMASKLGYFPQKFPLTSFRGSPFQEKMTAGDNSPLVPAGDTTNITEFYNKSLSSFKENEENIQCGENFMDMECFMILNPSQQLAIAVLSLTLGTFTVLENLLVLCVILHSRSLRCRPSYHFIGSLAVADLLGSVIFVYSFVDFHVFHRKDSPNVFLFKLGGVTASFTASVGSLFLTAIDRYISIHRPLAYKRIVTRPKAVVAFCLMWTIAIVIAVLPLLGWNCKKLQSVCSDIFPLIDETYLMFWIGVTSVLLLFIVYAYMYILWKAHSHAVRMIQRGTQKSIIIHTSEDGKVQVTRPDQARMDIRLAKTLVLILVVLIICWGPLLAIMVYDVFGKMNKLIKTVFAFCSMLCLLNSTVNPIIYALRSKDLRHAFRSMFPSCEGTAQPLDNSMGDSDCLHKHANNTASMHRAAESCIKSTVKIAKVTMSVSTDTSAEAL
Cannabinoid receptor 2, sequence (P47936 whole entry): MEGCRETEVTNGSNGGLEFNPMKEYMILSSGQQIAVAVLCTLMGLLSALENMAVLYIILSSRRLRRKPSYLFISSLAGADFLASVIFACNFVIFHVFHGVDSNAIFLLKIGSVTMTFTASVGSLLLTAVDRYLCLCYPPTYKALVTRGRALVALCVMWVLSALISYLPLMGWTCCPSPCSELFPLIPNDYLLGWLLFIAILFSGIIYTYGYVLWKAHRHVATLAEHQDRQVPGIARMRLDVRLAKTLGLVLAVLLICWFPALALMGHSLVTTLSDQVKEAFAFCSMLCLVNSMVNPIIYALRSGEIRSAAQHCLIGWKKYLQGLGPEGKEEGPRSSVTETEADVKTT

Consider `CC1=CC[C@@H]2[C@@H](C1)c1c(O)cc(C=C3C4CC5CC(C4)CC3C5)cc1OC2(C)C`, for which the results for the Ki in assay [1] and in assay [2] were 8.9 nM and 48.6 nM, respectively.

`CC1=CC[C@@H]2[C@@H](C1)c1c(O)cc(C3C4CC5CC(C4)CC3C5)cc1OC2(C)C` (stereo partly drawn): the Ki is 14 nM in assay [1] and 34.9 nM in assay [2].

With `CC1=CC[C@@H]2[C@@H](C1)c1c(O)cc(CC3C4CC5CC(C4)CC3C5)cc1OC2(C)C` (stereo partly drawn), the inhibition constant Ki in assay [1] came to 76 nM; in assay [2] it was 79.7 nM.

With `CC1=CC[C@@H]2[C@@H](C1)c1c(O)cc(C34CC5CC(CC(C5)C3)C4)cc1OC2(C)C`, the Ki in assay [1] was determined as 52 nM; in assay [2], 6.8 nM. The ED50 in assay [3] is 0.68 mg/kg; in assay [4], 0.41 mg/kg; in assay [4] (Rattus norvegicus, 1.5 h, read-out: ED50) it was 0.44 mg/kg.

Consider `CC1=CC[C@@H]2[C@@H](C1)c1c(O)cc(CC34CC5CC(CC(C5)C3)C4)cc1OC2(C)C`, for which the Ki in assay [1] is 26.9 nM; in assay [2] it was 29.3 nM.
